Holding throughout (type): functional
The subject of test [1] is Staphylococcus aureus. In words: Antibacterial activity against methicillin-resistant Staphylococcus aureus N315 assessed as inhibition of bacterial growth by continuous dilution method.
Another test concerns Enterococcus faecalis. In words: Antibacterial activity against Enterococcus faecalis assessed as inhibition of bacterial growth by continuous dilution method.
The subject of test [2] is Staphylococcus aureus. As to the kind of experiment: Antibacterial activity against Staphylococcus aureus assessed as inhibition of bacterial growth by continuous dilution method.
Test [3] has as its system Staphylococcus aureus. In words: Antibacterial activity against Staphylococcus aureus ATCC 25923 assessed as inhibition of bacterial growth by continuous dilution method.
For test [4], the system named is Staphylococcus aureus. In words: Antibacterial activity against Staphylococcus aureus ATCC 29213 assessed as inhibition of bacterial growth by continuous dilution method.
In the next test the test system is Klebsiella pneumoniae. In words: Antibacterial activity against Klebsiella pneumoniae assessed as inhibition of bacterial growth by continuous dilution method.
Test [5] relates to Escherichia coli. As to the kind of experiment: Antibacterial activity against Escherichia coli assessed as inhibition of bacterial growth by continuous dilution method.
Test [6] relates to Pseudomonas aeruginosa. As to the kind of experiment: Antibacterial activity against Pseudomonas aeruginosa assessed as inhibition of bacterial growth by continuous dilution method.
For the next test, the system named is Acinetobacter baumannii. As to the kind of experiment: Antibacterial activity against Acinetobacter baumannii assessed as inhibition of bacterial growth by continuous dilution method.
Test [7] deals with Pseudomonas aeruginosa. As to the kind of experiment: Antibacterial activity against Pseudomonas aeruginosa ATCC 27853 assessed as inhibition of bacterial growth by continuous dilution method.
The test system of test [8] is Escherichia coli. As to the kind of experiment: Antibacterial activity against Escherichia coli ATCC 25922 assessed as inhibition of bacterial growth by continuous dilution method.

In brackets after ≈: the same amount, converted by molar mass.

Broadly, the MIC is the lowest concentration found to suppress growth.

Turning to `CC(=O)Nc1ccc(S(=O)(=O)C/C(=N/Nc2ccc([N+](=O)[O-])cc2)c2nccs2)cc1`, the minimal inhibitory concentration (MIC) in the test with Staphylococcus aureus [1] came out at 256 µg/mL (≈ 557 µM); in the test with Enterococcus faecalis, 256 µg/mL (≈ 557 µM); with Staphylococcus aureus [2] it was 32 µg/mL (≈ 69.6 µM); in the test on Staphylococcus aureus [3] it was 256 µg/mL (≈ 557 µM); in the test with Staphylococcus aureus [4], 256 µg/mL (≈ 557 µM); in the test on Klebsiella pneumoniae, 256 µg/mL (≈ 557 µM). For the same compound, the MIC is 64 µg/mL (≈ 139 µM) in the test on Escherichia coli [5]; 32 µg/mL (≈ 69.6 µM) in the test with Pseudomonas aeruginosa [6]; 256 µg/mL (≈ 557 µM) in the test with Acinetobacter baumannii; 64 µg/mL (≈ 139 µM) with Pseudomonas aeruginosa [7]; 32 µg/mL (≈ 69.6 µM) in the test with Escherichia coli [8].
Turning to `CC(=O)Nc1ccc(S(=O)(=O)/C(=C\c2ccc(F)cc2F)C(=O)c2nccs2)cc1`, the minimum inhibitory concentration (MIC) in the test on Staphylococcus aureus [1] amounted to 64 µg/mL (≈ 143 µM); in the test with Enterococcus faecalis, 128 µg/mL (≈ 285 µM); in the test with Staphylococcus aureus [2], 128 µg/mL (≈ 285 µM); in the test with Staphylococcus aureus [3], 256 µg/mL (≈ 571 µM); in the test with Staphylococcus aureus [4] it was 256 µg/mL (≈ 571 µM); in the test on Klebsiella pneumoniae, 128 µg/mL (≈ 285 µM). The MIC in the test with Escherichia coli [5] came out at 128 µg/mL (≈ 285 µM); in the test with Pseudomonas aeruginosa [6], 128 µg/mL (≈ 285 µM); with Acinetobacter baumannii, 128 µg/mL (≈ 285 µM); in the test with Pseudomonas aeruginosa [7], 64 µg/mL (≈ 143 µM); in the test with Escherichia coli [8], 128 µg/mL (≈ 285 µM).
Consider `CCCCO/N=C(/CS(=O)(=O)c1ccc(NC(C)=O)cc1)c1nccs1`, for which the minimum inhibitory concentration (MIC) in the test on Staphylococcus aureus [1] stood at 64 µg/mL (≈ 162 µM); in the test with Enterococcus faecalis it was 64 µg/mL (≈ 162 µM); in the test with Staphylococcus aureus [2] it was 64 µg/mL (≈ 162 µM); with Staphylococcus aureus [3], 128 µg/mL (≈ 324 µM); in the test on Staphylococcus aureus [4] it was 64 µg/mL (≈ 162 µM); in the test with Klebsiella pneumoniae, 16 µg/mL (≈ 40.5 µM). Besides, the MIC in the test with Escherichia coli [5] turned out to be 32 µg/mL (≈ 80.9 µM); with Pseudomonas aeruginosa [6], 64 µg/mL (≈ 162 µM); with Acinetobacter baumannii, 128 µg/mL (≈ 324 µM); in the test on Pseudomonas aeruginosa [7] it was 64 µg/mL (≈ 162 µM); in the test with Escherichia coli [8], 16 µg/mL (≈ 40.5 µM).
With `CC(=O)Nc1ccc(S(=O)(=O)/C(=C\c2ccccc2Cl)C(=O)c2nccs2)cc1`, the MIC in the test with Staphylococcus aureus [1] was 256 µg/mL (≈ 573 µM); in the test with Enterococcus faecalis it was 16 µg/mL (≈ 35.8 µM); in the test with Staphylococcus aureus [2] it was 32 µg/mL (≈ 71.6 µM); in the test with Staphylococcus aureus [3] it was 64 µg/mL (≈ 143 µM); with Staphylococcus aureus [4], 128 µg/mL (≈ 286 µM); in the test on Klebsiella pneumoniae, 16 µg/mL (≈ 35.8 µM). Moreover, the MIC turned out to be 16 µg/mL (≈ 35.8 µM) with Escherichia coli [5]; 256 µg/mL (≈ 573 µM) in the test with Pseudomonas aeruginosa [6]; 128 µg/mL (≈ 286 µM) in the test on Acinetobacter baumannii; 32 µg/mL (≈ 71.6 µM) in the test on Pseudomonas aeruginosa [7]; 64 µg/mL (≈ 143 µM) in the test with Escherichia coli [8].
Regarding `CC(=O)Nc1ccc(S(=O)(=O)C/C(=N/OCC#N)c2nccs2)cc1`, the MIC came to 64 µg/mL (≈ 169 µM) in the test with Staphylococcus aureus [1]; 64 µg/mL (≈ 169 µM) in the test on Enterococcus faecalis; 64 µg/mL (≈ 169 µM) with Staphylococcus aureus [2]; 128 µg/mL (≈ 338 µM) in the test on Staphylococcus aureus [3]; 64 µg/mL (≈ 169 µM) in the test on Staphylococcus aureus [4]; 64 µg/mL (≈ 169 µM) in the test on Klebsiella pneumoniae. The MIC was 32 µg/mL (≈ 84.6 µM) with Escherichia coli [5]; 128 µg/mL (≈ 338 µM) with Pseudomonas aeruginosa [6]; 256 µg/mL (≈ 676 µM) in the test on Acinetobacter baumannii; 64 µg/mL (≈ 169 µM) with Pseudomonas aeruginosa [7]; 32 µg/mL (≈ 84.6 µM) with Escherichia coli [8].
With `CC(=O)Nc1ccc(S(=O)(=O)C/C(=N/NC(=O)c2ccccc2)c2nccs2)cc1`, the minimal inhibitory concentration (MIC) with Staphylococcus aureus [1] was 256 µg/mL (≈ 579 µM); with Enterococcus faecalis it was 32 µg/mL (≈ 72.3 µM); in the test on Staphylococcus aureus [2], 128 µg/mL (≈ 289 µM); in the test on Staphylococcus aureus [3], 32 µg/mL (≈ 72.3 µM); with Staphylococcus aureus [4], 256 µg/mL (≈ 579 µM); in the test with Klebsiella pneumoniae, 256 µg/mL (≈ 579 µM). The MIC with Escherichia coli [5] was 16 µg/mL (≈ 36.2 µM); in the test with Pseudomonas aeruginosa [6] it was 128 µg/mL (≈ 289 µM); with Acinetobacter baumannii it was 256 µg/mL (≈ 579 µM); with Pseudomonas aeruginosa [7], 4 µg/mL (≈ 9.04 µM); in the test with Escherichia coli [8], 64 µg/mL (≈ 145 µM).
On to `CC(=O)Nc1ccc(S(=O)(=O)/C(=C\c2nccs2)C(=O)c2nccs2)cc1`, for which the MIC was 8 µg/mL (≈ 19.1 µM) with Staphylococcus aureus [1]; 16 µg/mL (≈ 38.1 µM) in the test on Enterococcus faecalis; 32 µg/mL (≈ 76.3 µM) with Staphylococcus aureus [2]; 4 µg/mL (≈ 9.53 µM) in the test on Staphylococcus aureus [3]; 64 µg/mL (≈ 153 µM) with Staphylococcus aureus [4]; 16 µg/mL (≈ 38.1 µM) in the test with Klebsiella pneumoniae. Besides, the minimal inhibitory concentration (MIC) in the test with Escherichia coli [5] is 16 µg/mL (≈ 38.1 µM); in the test with Pseudomonas aeruginosa [6], 128 µg/mL (≈ 305 µM); in the test on Acinetobacter baumannii it was 128 µg/mL (≈ 305 µM); in the test with Pseudomonas aeruginosa [7] it was 128 µg/mL (≈ 305 µM); with Escherichia coli [8], 128 µg/mL (≈ 305 µM).
For `CC(=O)Nc1ccc(S(=O)(=O)/C(=C\c2ccc([N+](=O)[O-])cc2)C(=O)c2nccs2)cc1`, the MIC worked out at 128 µg/mL (≈ 280 µM) in the test with Staphylococcus aureus [1]; 128 µg/mL (≈ 280 µM) with Enterococcus faecalis; 256 µg/mL (≈ 560 µM) with Staphylococcus aureus [2]; 256 µg/mL (≈ 560 µM) in the test with Staphylococcus aureus [3]; 256 µg/mL (≈ 560 µM) in the test with Staphylococcus aureus [4]; 128 µg/mL (≈ 280 µM) with Klebsiella pneumoniae. Moreover, the minimum inhibitory concentration (MIC) in the test with Escherichia coli [5] amounted to 32 µg/mL (≈ 69.9 µM); in the test on Pseudomonas aeruginosa [6], 64 µg/mL (≈ 140 µM); in the test with Acinetobacter baumannii it was 256 µg/mL (≈ 560 µM); in the test on Pseudomonas aeruginosa [7] it was 64 µg/mL (≈ 140 µM); with Escherichia coli [8], 64 µg/mL (≈ 140 µM).
On to `CCCCO/N=C(/CS(=O)(=O)c1ccc(N)cc1)c1nccs1`, for which the minimum inhibitory concentration (MIC) was 64 µg/mL (≈ 181 µM) in the test on Staphylococcus aureus [1]; 16 µg/mL (≈ 45.3 µM) in the test with Enterococcus faecalis; 32 µg/mL (≈ 90.5 µM) with Staphylococcus aureus [2]; 32 µg/mL (≈ 90.5 µM) in the test with Staphylococcus aureus [3]; 64 µg/mL (≈ 181 µM) in the test with Staphylococcus aureus [4]; 16 µg/mL (≈ 45.3 µM) in the test on Klebsiella pneumoniae. Moreover, the minimum inhibitory concentration (MIC) turned out to be 32 µg/mL (≈ 90.5 µM) in the test on Escherichia coli [5]; 32 µg/mL (≈ 90.5 µM) in the test with Pseudomonas aeruginosa [6]; 64 µg/mL (≈ 181 µM) in the test with Acinetobacter baumannii; 32 µg/mL (≈ 90.5 µM) in the test with Pseudomonas aeruginosa [7]; 32 µg/mL (≈ 90.5 µM) in the test with Escherichia coli [8].
In the case of `CC(=O)Nc1ccc(S(=O)(=O)C/C(=N/Nc2ccccc2)c2nccs2)cc1`, the MIC in the test with Staphylococcus aureus [1] came out at 128 µg/mL (≈ 309 µM); in the test on Enterococcus faecalis, 128 µg/mL (≈ 309 µM); with Staphylococcus aureus [2], 256 µg/mL (≈ 618 µM); with Staphylococcus aureus [3], 256 µg/mL (≈ 618 µM); with Staphylococcus aureus [4], 256 µg/mL (≈ 618 µM); in the test with Klebsiella pneumoniae it was 256 µg/mL (≈ 618 µM). Moreover, the MIC with Escherichia coli [5] is 256 µg/mL (≈ 618 µM); in the test on Pseudomonas aeruginosa [6], 256 µg/mL (≈ 618 µM); in the test on Acinetobacter baumannii, 64 µg/mL (≈ 154 µM); with Pseudomonas aeruginosa [7], 256 µg/mL (≈ 618 µM); in the test on Escherichia coli [8], 256 µg/mL (≈ 618 µM).
